Results published in patent EP4763837A1, “PHOTOCHROMIC COMPOUND, CURABLE COMPOSITION, OPTICAL ARTICLE, LENS, AND EYEGLASSES” (TOKUYAMA CORPORATION, priority 2023, dated 2025).
Several values for one entry are separate records, joined by “and”; a condition that tells them apart may be missing. Identical values can stand only once.

How the values were obtained:
[1] = Photochromic property of binder sheet (photochromic layer made by binder method); format: physicochemical; settings: for Residual ratio: A96/A0 x 100 after 96 hours accelerated degradation, xenon weather meter X25; for Color developing density at 23°C: absorbance difference after 240 seconds irradiation at the maximum absorption wavelength of the same line
Experimental: The resulting photochromic laminates were evaluated by the below-mentioned methods. • (1) Photochromic property • [1] Maximum absorption wavelength (λmax): This is the maximum absorption wavelength after color development determined by a spectrophotometer manufactured by Otsuka Electronics Co., Ltd. (instantaneous multichannel photo detector MCPD3000) and was used as an index of a color tone upon color development. • [2] Color developing density at 23°C (A23): This is a difference between an absorbance {ε(240)} after irradiation with light at 23°C for 240 seconds and an absorbance ε(0) when not irradiated with light at the maximum absorption wavelength and was used as an index of a color developing density. The higher this value is, the better a photochromic property is. • [3] Color fading half-life at 23°C [τ1/2 (sec).)]: This is a period of time taken by an absorbance at the maximum absorption wavelength of a sample to decrease to 1/2 of {ε(240)-ε(0)} when irradiation is stopped after irradiation with light at 23°C for 240 seconds, and was used as an index of a color fading rate. The shorter this period of time is, the faster the color fading rate is. • [4] Residual ratio (A96/A0 x 100): The resulting photochromic plastic lens was subjected to accelerated degradation for 96 hours using a xenon weather meter X25 manufactured by Suga Test Instruments Co., Ltd. Color developing densities were then evaluated before and after a test, and a color developing density before the test (A0) and a color developing density after the test (A96) were measured. A ratio (A96/A0) was determined as a residual ratio and was used as an index of color development durability. The higher the residual ratio is, the more durable the color development is.
A binder sheet was produced as follows. The binder sheet was made by laminating a first optical sheet, a first adhesive layer, a photochromic layer, a second adhesive layer, and a second optical sheet in this order. A polycarbonate sheet with a thickness of 400 µm was used as the first optical sheet and the second optical sheet.
A 2 L four-necked flask equipped with a stirring blade, a condense tube, a thermometer, and a nitrogen gas inlet tube was charged with 315 parts by mass of polycarbonate diol with a number average molecular weight of 1000, 100 parts by mass of isophorone diisocyanate, and 72 parts by mass of toluene and reacted under a nitrogen atmosphere at 100°C for 7 hours. Thus, a urethane prepolymer with a terminal isocyanate group was synthesized. After the reaction of the above-mentioned urethane prepolymer was completed, the resulting reaction liquid was cooled to about 0°C and dissolved in 205 parts by mass of tertiary-butyl alcohol and 382 parts by mass of diethyl ketone, and then a temperature of the resulting liquid was kept at 0°C. Next, a mixed solution of 21.3 parts by mass of bis-(4-aminocyclohexyl)methane serving as a chain extender and 20 parts by mass of diethyl ketone was added dropwise thereto within 30 minutes and reacted at 0°C for 1 hour. Then, 8.1 parts by mass of 1,2,2,6,6-pentamethyl-4-aminopiperidine was added dropwise thereto and reacted at 0°C for 1 hour to obtain a solution of a terminal non-reactive urethane urea resin in diethylketone.
One hundred parts by mass of the resulting solution of a terminal non-reactive urethane urea resin, 6.3 parts by mass of Example 1 (a photochromic compound represented by Formula (1-7), an isomer mixture of 4,4'-methylenebis(cyclohexylisocyanate) (polyisocyanate compound)), 0.4 parts by mass of ethylenebis(oxyethylene) bis[3-(5-tert-butyl-4-hydroxy-m-tolyl) propionate] serving as an antioxidant, and 0.06 parts by mass of L-7001 manufactured by DuPont Toray Specialty Materials K.K. serving as a surfactant were added and stirred and mixed at room temperature to obtain a composition for forming a photochromic layer. […]

[2] = Solubility of photochromic compound in polymerizable compounds; format: physicochemical; set-up: key: 1: No haze is seen when checked under transmission of light, and the sample is completely dissolved.; 2: A very thin haze is seen to the extent that it can be seen under transmission of light.; 3: A thin haze that can be seen under transmission of light is seen.; 4: A haze can be seen even without transmission of light; settings: 35 µmol/g in radical polymerizable compound composition of Example 21, 65 to 70°C; for Dissolution for 15 min / Dissolution for 30 min / Dissolution for 45 min: stirring and ultrasonic irradiation; for Dissolution for 1 hour: head reads 60 min in Tables 8 to 14
Outline: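 Photochromic compound was added to the radical polymerizable portion of a curable composition and dissolved at 65 to 70°C under stirring and intermittent ultrasonication. The sample was inspected visually by transmitted light every 15 minutes up to 1 h and scored 1 (fully dissolved, no haze) to 4 (haze visible without transmitted light). Solubility was ranked by the time taken to reach score 1.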

Residual ratio [1]	Color developing density at 23°C [1]	Dissolution for 15 min [2]	Dissolution for 30 min [2]	Dissolution for 45 min [2]	Dissolution for 1 hour [2]	SMILES
50% and 51%	1.32 - and 0.71 -	4	3	1	1	CCC1(OC)c2ccccc2-c2c1c1c(c3cc(OC)c(N4CCOCC4)cc23)OC(c2ccc(OC)cc2)(c2ccc(OC)cc2)C=C1 (stereo not shown) [Formula (B), reference compound]
63% and 65%	–	4	3	3	3	COc1ccc(C2(c3ccc(OC)cc3)C=Cc3c4c(c5cc(N6CCOCC6)c(OC)cc5c3O2)-c2ccccc2C4(C)C)cc1 [Formula (A), reference compound]
71% and 74%	–	3	2	1	1	CCCCCCC1(CC)c2ccccc2-c2c1c1c(c3cc(OC)c(N4CCOCC4)cc23)OC(c2ccc(OC)cc2)(c2ccc(OC)cc2)C=C1 (stereo not shown) [Formula (18-1)]
75%	–	4	2	1	1	CCCC1(CC)c2ccccc2-c2c1c1c(c3cc(OC)c(N4CCOCC4)cc23)OC(c2ccc(OC)cc2)(c2ccc(OC)cc2)C=C1 (stereo not shown) [Formula (14-1)]
93%	1.19 -	4	2	2	1	CCC1(C)c2ccccc2-c2c1c1c(c3cc(OC)c(N(C)c4ccccc4)cc23)OC(c2ccc(OC)cc2)(c2ccc(OC)cc2)C=C1 (stereo not shown) [Formula (9-1)]
62% and 66%	–	2	1	1	1	CCCCCCCCCCCC1(C)c2ccccc2-c2c1c1c(c3cc(OC)c(N4CCOCC4)cc23)OC(c2ccc(OC)cc2)(c2ccc(OC)cc2)C=C1 (stereo not shown) [Formula (19-1)]
75% and 72%	–	4	2	1	1	CCCCC1(CCC)c2ccccc2-c2c1c1c(c3cc(OC)c(N4CCOCC4)cc23)OC(c2ccc(OC)cc2)(c2ccc(OC)cc2)C=C1 (stereo not shown) [Formula (6-2)]
